# Experimental data as given in US9247741B2, “Use of macrocyclic picolinamides as fungicides” (DOW AGROSCIENCES LLC, priority 2013, dated 2016).
# Key:
# Type in all cases: in vivo
# Uncinula necator = assay: Grape powdery mildew (UNCINE) disease control; details: Erysiphe necator, 24 h, 1 Day Protectant, read-out: UNCINE disease control rating
# Method: Technical grades of materials were dissolved in acetone, which were then mixed with nine volumes of water containing 110 ppm Triton X-100. The fungicide solutions were applied onto wheat seedlings using an automated booth sprayer to run-off. All sprayed plants were allowed to air dry prior to further handling. All fungicides were evaluated using the aforementioned method for their activity vs. all target diseases. Wheat leaf blotch and brown rust activity were also evaluated using track spray applications, in which case the fungicides were formulated as EC formulations, containing 0.1% Trycol 5941 in the spray solutions. Wheat plants (variety Yuma) were grown from seed in a greenhouse in 50% mineral soil/50% soil-less Metro mix until the first leaf was fully emerged, with 7-10 seedlings per pot. These plants were inoculated with an aqueous spore suspension of Septoria tritici either prior to or after fungicide treatments. After inoculation the plants were kept in 100% relative humidity (one day in a dark dew chamber followed by two to three days in a lighted dew chamber at 20° C.) to permit spores to germinate and infect the leaf. The plants were then transferred to a greenhouse set at 20° C. for disease to develop. When disease symptoms were fully expressed on the l^st leaves of untreated plants, infection levels were assessed on a scale of 0 to 100 percent disease severity. Percent disease control was calculated using the ratio of disease severity on treated plants relative to untreated plants. Evaluation of Fungicidal Activity: Grape Powdery Mildew (Uncinula necator; Bayer Code […]) Grape seedlings (variety Carignane) were grown in soil-less Metro mix, with one plant per pot, and used in the test when approximately one month old. Plants were inoculated 24 hr after fungicide treatment by shaking spores from infected leaves over test plants. Plants were maintained in a greenhouse set at 20° C. until disease was fully developed. Fungicide formulation, application and disease assessment on the sprayed leaves followed the procedures as described in the Example A.
# Erysiphe cichoracearum = assay: Powdery mildew of cucumber (ERYSCI) disease control; details: Golovinomyces cichoracearum, 24 h, 1 Day Protectant, read-out: ERYSCI disease control rating
# Method: Technical grades of materials were dissolved in acetone, which were then mixed with nine volumes of water containing 110 ppm Triton X-100. The fungicide solutions were applied onto wheat seedlings using an automated booth sprayer to run-off. All sprayed plants were allowed to air dry prior to further handling. All fungicides were evaluated using the aforementioned method for their activity vs. all target diseases. Wheat leaf blotch and brown rust activity were also evaluated using track spray applications, in which case the fungicides were formulated as EC formulations, containing 0.1% Trycol 5941 in the spray solutions. Wheat plants (variety Yuma) were grown from seed in a greenhouse in 50% mineral soil/50% soil-less Metro mix until the first leaf was fully emerged, with 7-10 seedlings per pot. These plants were inoculated with an aqueous spore suspension of Septoria tritici either prior to or after fungicide treatments. After inoculation the plants were kept in 100% relative humidity (one day in a dark dew chamber followed by two to three days in a lighted dew chamber at 20° C.) to permit spores to germinate and infect the leaf. The plants were then transferred to a greenhouse set at 20° C. for disease to develop. When disease symptoms were fully expressed on the l^st leaves of untreated plants, infection levels were assessed on a scale of 0 to 100 percent disease severity. Percent disease control was calculated using the ratio of disease severity on treated plants relative to untreated plants. Evaluation of Fungicidal Activity: Powdery Mildew of Cucumber (Erysiphe cichoracearum; Bayer Code […]) Cucumber seedlings (variety Bush Pickle) were grown in soil-less Metro mix, with one plant per pot, and used in the test when 12 to 14 days old. Plants were inoculated with a spore suspension 24 hr following fungicide treatments. After inoculation the plants remained in the greenhouse set at 20° C. until disease was fully expressed. Fungicide formulation, application and disease assessment on the sprayed leaves followed the procedures as described in the Example A.
# Rhyncosporium secalis = assay: Barley scald (RHYNSE) disease control; details: Hordeum vulgare, 24 h, 1 Day Protectant, read-out: RHYNSE disease control rating
# Method: Technical grades of materials were dissolved in acetone, which were then mixed with nine volumes of water containing 110 ppm Triton X-100. The fungicide solutions were applied onto wheat seedlings using an automated booth sprayer to run-off. All sprayed plants were allowed to air dry prior to further handling. All fungicides were evaluated using the aforementioned method for their activity vs. all target diseases. Wheat leaf blotch and brown rust activity were also evaluated using track spray applications, in which case the fungicides were formulated as EC formulations, containing 0.1% Trycol 5941 in the spray solutions. Wheat plants (variety Yuma) were grown from seed in a greenhouse in 50% mineral soil/50% soil-less Metro mix until the first leaf was fully emerged, with 7-10 seedlings per pot. These plants were inoculated with an aqueous spore suspension of Septoria tritici either prior to or after fungicide treatments. After inoculation the plants were kept in 100% relative humidity (one day in a dark dew chamber followed by two to three days in a lighted dew chamber at 20° C.) to permit spores to germinate and infect the leaf. The plants were then transferred to a greenhouse set at 20° C. for disease to develop. When disease symptoms were fully expressed on the l^st leaves of untreated plants, infection levels were assessed on a scale of 0 to 100 percent disease severity. Percent disease control was calculated using the ratio of disease severity on treated plants relative to untreated plants. Evaluation of Fungicidal Activity: Barley Scald (Rhyncosporium secalis; Bayer code […]) Barley seedlings (variety Harrington) were propagated in soil-less Metro mix, with each pot having 8 to 12 plants, and used in the test when first leaf was fully emerged. Test plants were inoculated by an aqueous spore suspension of Rhyncosporium secalis 24 hr after fungicide treatments. After inoculation the plants were kept in a dew room at 20° C. with 100% relative humidity for 48 hr. The plants were then transferred to a greenhouse set at 20° C. for disease to develop. Fungicide formulation, application and disease assessment on the sprayed leaves followed the procedures as described in the Example A.
SMILES,pest or weed control at 100 ppm (Uncinula necator) [%],pest or weed control at 100 ppm (Erysiphe cichoracearum) [%],pest or weed control at 100 ppm (Rhyncosporium secalis) [%]
CCCC[C@H]1[C@H](C)OC(=O)[C@@H](NC(=O)c2nccc(OC)c2OCOC(C)=O)CCC[C@@H]1Oc1ccccc1 [Compound 33],> 70,> 70,> 70
COc1ccnc(C(=O)N[C@H]2CCC[C@H](OCC3CC3)[C@@H](Cc3ccc(F)cc3)[C@H](C)OC2=O)c1OCOC(C)=O [Compound 61],> 70,< 70,> 70
"CCCO[C@H]1CCC[C@H](NC(=O)c2nccc(OC)c2OC(C)=O)C(=O)O[C@@H](C)[C@@H]1CCC(C)C [Compound 74, 2-(((3S,7S,8S,9S)-8-isopentyl-9-methyl-2-oxo-7-propoxyoxonan-3-yl)carbamoyl)-4-methoxypyridin-3-yl acetate]",> 70,> 70,> 70
CCCC[C@H]1[C@H](C)OC(=O)[C@@H](NC(=O)c2nccc(OC)c2OCOC(C)=O)CCC[C@@H]1OCC1CC1 [Compound 73],> 70,< 70,> 70
"CCCO[C@H]1CCC[C@H](NC(=O)c2nccc(OC)c2OCOC(C)=O)C(=O)O[C@@H](C)[C@@H]1CCC(C)C [Compound 25, ((2-(((3S,7S,8S,9S)-8-isopentyl-9-methyl-2-oxo-7-propoxyoxonan-3-yl)carbamoyl)-4-methoxypyridin-3-yl)oxy)methyl acetate]",> 70,< 70,> 70
CCCO[C@H]1CCC[C@H](NC(=O)c2nccc(OC)c2OC(C)=O)C(=O)O[C@@H](C)[C@@H]1Cc1ccccc1 [Compound 70],> 70,< 70,> 70
COc1ccnc(C(=O)N[C@H]2CCC[C@H](Oc3ccccc3)[C@@H](CCC(C)C)[C@H](C)OC2=O)c1OC(C)=O [Compound 36],> 70,> 70,> 70
COc1ccnc(C(=O)N[C@H]2CCC[C@H](Oc3ccccc3)[C@@H](CCC(C)C)[C@H](C)OC2=O)c1OCOC(C)=O [Compound 40],> 70,> 70,> 70
